In US20250263437A1, “POLYPEPTIDE FOR REPAIRING SKIN WOUND OR MUCOSAL INJURY, AND APPLICATION THEREOF” (Sichuan Gooddoctor Panxi Pharmaceutical Co., Ltd., priority 2021, published 2025):
Entries after “also recorded” stand apart in the source; their conditions may differ. Where no end group is shown, it is not given here.

Tests used:
[1] = target: FGFR1 (Homo sapiens, UniProt P11362); experiment: FGFR receptor binding assay: ultrafiltration/mass spectrometry affinity screening to FGFR1 protein target; details: ratio of lower-layer to upper-layer compound MS signal intensity; the greater the ratio, the stronger the affinity
FGFR1, sequence (P11362 22-822, species assumed): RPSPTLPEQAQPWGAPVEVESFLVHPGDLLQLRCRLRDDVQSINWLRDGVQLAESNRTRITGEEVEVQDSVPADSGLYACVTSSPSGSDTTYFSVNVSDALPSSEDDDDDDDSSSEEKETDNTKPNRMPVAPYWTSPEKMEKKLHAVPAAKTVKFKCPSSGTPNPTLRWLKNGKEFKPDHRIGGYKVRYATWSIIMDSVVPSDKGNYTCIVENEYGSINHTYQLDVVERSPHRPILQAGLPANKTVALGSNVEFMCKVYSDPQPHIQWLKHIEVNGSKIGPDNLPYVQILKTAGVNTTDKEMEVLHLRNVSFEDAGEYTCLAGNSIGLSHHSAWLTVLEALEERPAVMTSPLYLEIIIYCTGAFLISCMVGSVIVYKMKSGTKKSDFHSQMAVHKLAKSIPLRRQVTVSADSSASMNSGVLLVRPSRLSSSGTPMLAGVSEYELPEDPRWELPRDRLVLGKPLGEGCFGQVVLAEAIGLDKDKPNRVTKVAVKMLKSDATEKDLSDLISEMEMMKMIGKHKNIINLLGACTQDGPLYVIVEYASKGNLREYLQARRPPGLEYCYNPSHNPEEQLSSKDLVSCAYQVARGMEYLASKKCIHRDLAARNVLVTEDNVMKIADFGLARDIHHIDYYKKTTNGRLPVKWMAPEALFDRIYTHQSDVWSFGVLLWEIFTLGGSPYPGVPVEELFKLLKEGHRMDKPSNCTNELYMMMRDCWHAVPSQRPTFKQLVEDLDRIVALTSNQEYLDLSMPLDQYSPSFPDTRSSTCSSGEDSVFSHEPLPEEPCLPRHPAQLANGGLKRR
Method: The affinity of the polypeptide compound prepared by the present invention to FGFR1 was tested by using a control FGFR1 allosteric inhibitor (product number SSR128129E from Sigma) as a positive compound control.
Screening for the affinity to FGFR1 was as follows: FGFR1 solutions with an appropriate concentration were taken, the positive compound SSR128129E (Sigma) at an appropriate concentration and sample solutions of the inventive polypeptide compounds, as freeze-dried powders, dissolved in protein buffers were then respectively added. After incubation at room temperature for 50 min, ultrafiltration and screening were carried out to obtain various treated solutions. An appropriate volume of acetonitrile was added to each treated solution to precipitate a protein, the solution was then centrifuged, and the supernatant was taken and analyzed by mass spectrometry.
Affinity screening conditions: One-dimensional liquid-phase conditions were: chromatographic column; PolyLC chromatographic column, mobile phase A: KH2PO4, NaCl, pH 7.5, mobile phase B: acetonitrile, column temperature: 8° C., flow rate: 1 mL/min, and injection volume: appropriate; and two-dimensional liquid-phase conditions were: chromatographic column: BONUS RRHD, mobile phase A: 0.1% formic acid aqueous solution, mobile phase B: 0.1% formic acid in acetonitrile, column temperature: 60° C., flow rate: 0.3 mL/min, and injection volume: 40 uL. Gradient elution was used, i.e., 98% A (0-1 min), 98-10% A (1-6 min), 10% A (6-7.5 min), 10-98% A (7.5-8 min), and 98% A (8-9.5 min). Mass spectrometry conditions: Agilent 6530 Q-Tof, ESI ion source, voltage 3.5 KV, mass-to-charge ratio scanning range m/z=200-3000, acquisition mode: positive ion scanning, ion source temperature: 350° C., solvent removal temperature: 300° C., and nitrogen flow rate: 8 L/min.

[2] = tested on: ethanol-induced gastric ulcer model in mice; experiment: Anti-ulcer effect on ethanol-induced gastric ulcer model in mice; type: in vivo; details: single administration; ulcer inhibition rate of test compound / ulcer inhibition rate of Compound 1
Method: Experimental animals: Six-week old C57BL/6JGPt male mice, weighing about 20 g/mouse, were selected, with 10 mice in each group, from GemPharmatech (Chengdu) Co., Ltd., animal license number: SCXK (Chuan) 2020-034. After the experimental animals were divided into groups, they were dosed according to Table 5 one day before the experiment. Among the groups, the model group was given 200 μl of pure water, and the other dose groups were given 200 μl of drug solution. After that, all the animals were fasted for 24 h with free access to water. The next day, 1 h after administration, the mice in each group were given 9 μl/g of absolute ethanol by oral gavage for modeling. After 1 h, the animals were sacrificed by cervical dislocation, the gastric cardia was ligated, the pylorus was occluded, and the whole stomach was removed. 1 mL of 1% formaldehyde solution was injected into the gastric lumen via the glandular stomach, the cardia was ligated, and the stomach was taken out and immediately immersed in 1% formaldehyde solution. After soaking for 30 min, the stomach tissue was taken out and cut open along the greater curvature. The content of the stomach was rinsed off with normal saline, the injury of the gastric mucosa in the mice were observed and measured after being laid flat, and the ulcer index and ulcer inhibition rate were calculated; panoramic photos of the stomach were taken; and finally, the gastric tissue sample was immersed in formalin and fixed. Calculation method for ulcer index: If the length of cord-like injury was greater than 1 mm, the length thereof was measured, with 1 point per millimeter; if the width thereof was greater than 1 mm, the score thereof was doubled according to the number of millimeters of the width; and if the length was less than 1 mm, a score of 0.5 was given, and the scores were added up to obtain the ulcer index of the animal. Method of data statistics: the ulcer index was expressed as mean±standard deviation; the ulcer inhibition rate was calculated by using the median value and mean value of the ulcer index in each dosage group and simulation group; and the data were statistically analyzed by means of Excel, and the difference data of the gastric ulcer index were statistically analyzed by means of independent sample T test.

[3] = tested on: HaCaT cells; experiment: Proliferation of HaCaT cells (CCK8); type: cell-based, human; details: 0.2-0.8 μg/mL; 24 h, 48 h and 72 h; 1% serum
Method: Experimental method: Immortalized human keratinocytes (HaCaT cells) was adjusted to a concentration of 1.0×10^5 to 5.0×10^5/mL for passaging, and they were cultured at 37° C. and 5% CO2 for 24-36 h for biological activity detection. The cells were digested with 0.25% trypsin for 5 min, 1640 whole blood culture medium, the volume of which was not less than 1 time of the volume of the trypsin, was added to stop digestion, a cell suspension was collected, centrifuged at 1000 RPM for 3 min, the supernatant was discarded, 2 mL of 1640 whole blood culture medium was added to suspend the cells, 20 μL of the cell suspension was taken and stained with AOPI, the concentration of cells in the suspension was then detected by a cell counter, the suspension was prepared to a concentration of 5×10^4/mL with 1640 culture medium containing serum at a concentration of 10% and inoculated into a 96-well cell culture plate, with 100 μL per well, i.e., 5000 cells/well, and the plate was cultured at 37° C. and 5% CO2 overnight.
After 24 h, the original culture medium was discarded, and 100 μL of polypeptide compound solutions with different concentrations prepared with 1640 culture medium containing serum at a concentration of 1% were added, such that the final concentrations of the polypeptide compounds to be tested were 0.2, 0.4 and 0.8 ug/mL, respectively. In addition, an EGF control group was prepared by adding 100 μL of a recombinant human epidermal growth factor (EGF) solution prepared with 1640 culture medium containing serum at a concentration of 1%, with the final concentration being 100 ng/ml. In the model control group, an equal volume of 1640 culture medium containing serum at a concentration of 1% was added. After culturing at 37° C. and 5% CO2 for 24 h, 48 h and 72 h, the proliferation of the HaCaT cell line was detected by means of CCK8 kit.

[4] = tested on: HMEC-1 cells; experiment: Proliferation of HMEC-1 cells (CCK-8); type: cell-based, Human; details: 0.05, 0.2 and 0.8 ug/mL; 48 h; 0% serum
Method: Human microvascular endothelial cells (HMEC-1 cells) were cultured in 10% serum culture medium at 37° C. and 5% CO2, the medium was replaced every 1-2 d, and the cell concentration was controlled to be 4×10^6 cells/mL for passage. Cells were collected, prepared to […] with complete culture medium, inoculated into a 96-well cell culture plate, with 100 μL per well, i.e., 5000 cells/well, and cultured at 37° C. and 5% CO2 until the cells adhered to the wall. The polypeptide compound of the present invention was prepared to test concentrations (0.05 ug/mL, 0.2 ug/mL, and 0.8 ug/mL) with 0% serum culture medium as experimental groups, a positive drug (300 ng/ml) was prepared in the same way and added as a positive control, and an equal amount of 0% serum drug-free culture medium was added to the control group. They were added to 5 duplicate wells, and the resultants were incubated at 37° C. and 5% CO2 for 48 h. Detection of the proliferation of cells using CCK-8: the old culture medium was removed, and a serum-free medium containing 10% CCK-8 was added to each well. After incubation in an incubator for 2 h, the absorbance at 450 nm was measured by a microplate reader.

[5] = tested on: RSC96 cells; experiment: Proliferation of RSC96 cells (CCK-8); type: cell-based; details: 0.2, 0.4 and 0.8 ug/ml; 48 h; 0% serum
Method: Glial cells (RSC96 cells) were adjusted to a concentration of 1.0×10^5 to 5.0×10^5/mL for passaging and cultured at 37° C. and 5% CO2 for 24-36 h for biological activity detection. The cells were digested by trypsin, collected, prepared to a concentration of 5×10^4/mL with a serum-free medium, inoculated into a 96-well cell culture plate, with 100 μL per well, i.e., 5000 cells/well, and cultured overnight at 37° C. and 5% CO2. The polypeptide compound of the present invention was prepared to test concentrations (0.2 ug/ml, 0.4 ug/ml, and 0.8 ug/ml) with 0% serum culture medium as experimental groups, and an equal amount of 0% serum drug-free culture medium was added to the control group. They were added to 4 duplicate wells, and the resultants were incubated at 37° C. and 5% CO2 for 48 h. Detection of the proliferation of cells using CCK-8: the old culture medium was removed, and a serum-free medium containing 10% CCK-8 was added to each well. After incubation in an incubator for 2 h, the absorbance at 450 nm was measured by a microplate reader.

Sequence	Cb/Ct range [1]	Anti-ulcer activity (mean relative ulcer inhibition rate) [2]	effect on proliferation of HaCaT cells [3]	effect on proliferation of HMEC-1 cells [4]	effect on proliferation of RSC96 cells [5]
VDAAVLMLRT [Compound 73]	1.0-3	1.46	proliferation-promoting effect	proliferation-promoting effect	proliferation-promoting effect
VDAAVIEKIE [Compound 71]	1.0-3	0.77	proliferation-promoting effect	proliferation-promoting effect	
VDAAMVLLTR [Compound 72]	1.0-3	1.65	proliferation-promoting effect	significant proliferation promoting effects; also recorded: proliferation-promoting effect	
KFYSQSTASSSYAYPSHFGPAGFSGSHS [Compound 70]	1.0-3	0.39	proliferation-promoting effect		inhibitory effect
HCLAGLKKDLEDLE [Compound 63]	1.0-3	1.99	proliferation-promoting effects		proliferation-promoting effect
EINQLELIKQASI [Compound 64]	1.0-3	0.61	proliferation-promoting effect	proliferation-promoting effect	significant proliferation promoting effects
ETLQRKNKE [Compound 66]	1.0-3	0.52	proliferation-promoting effect		significant proliferation promoting effects
AARLADELRAE [Compound 65]	1.0-3	1.29	proliferation-promoting effect		proliferation-promoting effect
